Experimental data taken from patent publication US20230023092A1, “TREATMENT OF DEPRESSION AND OTHER VARIOUS DISORDERS WITH PSILOCYBIN” (COMPASS […], priority 2019, published 2023).

Assays:
Format in all cases: in vivo, human
[1] = tested on: healthy subjects; experiment: Pictorial Empathy Test (PET)
Protocol: In some embodiments, the Pictorial Empathy Test (PET) is utilized to evaluate the effect of psilocybin on affective empathy.
(§1) The Pictorial Empathy Test (PET), Reading the Mind in the Eyes Test (RMET), Scale of Social Responsibility (SSR), Social Value Orientation (SVO), and Toronto Empathy Questionnaire (TEQ) were performed. Table 20 summarizes the results of the mixed model for repeated measures (MMRM) analysis for each of the aforementioned social cognition panel scales measured on Day 7 and Day 84 after study drug administration.

[2] = tested on: healthy subjects; experiment: Scale of Social Responsibility (SSR)
Protocol: In some embodiments, the Scale of Social Responsibility (SSR) is utilized to evaluate the safety and/or efficacy of psilocybin. The SSR measures perceptions regarding the importance of ethics and social responsibility.
as §1

[3] = tested on: healthy subjects; experiment: CANTAB global composite score; conditions: 10 mg, Day 7
Protocol: The following list of outcome measures are non-exhaustive. • a. The short-term change from Baseline (Day −1 [Visit 2]) to Day 7 (Visit 5) in cognitive measures of attention, spatial and working memory and executive function was measured by a composite score of the CANTAB Panel (Spatial Working Memory [SWM], Rapid Visual Information Processing [RVP], Paired Associates Learning [PAL]). • b. The short-term change from Baseline (Day −1 [Visit 2]) to Day 7 (Visit 5) in Social Cognition Panel scales (Pictorial Empathy Test [PET], Reading the Mind in the Eyes Test [RMET], Toronto Empathy Questionnaire [TEQ], Social Value Orientation [SVO], Scale of Social Responsibility [SSR]). • c. The change from Baseline (Day −1 [Visit 2]) to Day 28 (Visit 6) in cognitive measures of attention, spatial and working memory and executive function as measured by a composite score of the CANTAB Panel (SWM, RVP, PAL). • d. […] Dose-related differences between cognitive effects of psilocybin at Baseline (Day −1 [Visit 2]), Day 7 (Visit 5) and Day 28 (Visit 6), as measured by a composite score of the CANTAB Panel (SWM, RVP, PAL). • f. Dose-related differences between psychological effects of psilocybin at Baseline (Day −1 [Visit 2]), Day 7 (Visit 5) and Day 84 (Visit 7), as measured by Social Cognition Panel scales (PET, RMET, TEQ, SVO, SSR). • g. […]

[4] = Day 7, psilocybin 10 mg - placebo
[5] = Day 7, psilocybin 25 mg - 10 mg
[6] = Day 7, psilocybin 25 mg - placebo
[7] = Day 84, psilocybin 10 mg - placebo
[8] = Day 84, psilocybin 25 mg - 10 mg
[9] = Day 84, psilocybin 25 mg - placebo

SMILES: CN(C)CCc1c[nH]c2cccc(OP(=O)(O)O)c12 [Psilocybin, psilocybin]
- PET change from baseline (LS mean) ([1]; Day 7, psilocybin 10 mg): −0.3
- PET change from baseline, LS mean difference [1, 4]: −0.1
- PET change from baseline (LS mean) ([1]; Day 7, psilocybin 25 mg): 0.0
- PET change from baseline, LS mean difference [1, 5]: 0.3
- PET change from baseline, LS mean difference [1, 6]: 0.2
- PET change from baseline (LS mean) ([1]; Day 84, psilocybin 10 mg): −0.3
- PET change from baseline, LS mean difference [1, 7]: −0.1
- PET change from baseline (LS mean) ([1]; Day 84, psilocybin 25 mg): −0.1
- PET change from baseline, LS mean difference [1, 8]: 0.3
- PET change from baseline, LS mean difference [1, 9]: 0.1
- SSR compliance social rules change from baseline (LS mean) ([2]; Day 7, psilocybin 10 mg): −0.1
- SSR fullfilling expectations change from baseline (LS mean) ([2]; Day 7, psilocybin 10 mg): −0.1
- SSR global change from baseline (LS mean) ([2]; Day 7, psilocybin 10 mg): −2.0
- SSR compliance social rules change from baseline, LS mean difference [2, 4]: 0.0
- SSR fullfilling expectations change from baseline, LS mean difference [2, 4]: 0.1
- SSR global change from baseline, LS mean difference [2, 4]: 1.2
- SSR compliance social rules change from baseline (LS mean) ([2]; Day 7, psilocybin 25 mg): 0.0
- SSR fullfilling expectations change from baseline (LS mean) ([2]; Day 7, psilocybin 25 mg): −0.0
- SSR global change from baseline (LS mean) ([2]; Day 7, psilocybin 25 mg): −0.3
- SSR compliance social rules change from baseline, LS mean difference [2, 5]: 0.1
- SSR fullfilling expectations change from baseline, LS mean difference [2, 5]: 0.1
- SSR global change from baseline, LS mean difference [2, 5]: 1.6
- SSR compliance social rules change from baseline, LS mean difference [2, 6]: 0.1
- SSR fullfilling expectations change from baseline, LS mean difference [2, 6]: 0.2
- SSR global change from baseline, LS mean difference [2, 6]: 2.8
- SSR compliance social rules change from baseline (LS mean) ([2]; Day 84, psilocybin 10 mg): −0.1
- SSR fullfilling expectations change from baseline (LS mean) ([2]; Day 84, psilocybin 10 mg): −0.2
- SSR global change from baseline (LS mean) ([2]; Day 84, psilocybin 10 mg): −1.8
- SSR compliance social rules change from baseline, LS mean difference [2, 7]: −0.0
- SSR fullfilling expectations change from baseline, LS mean difference [2, 7]: −0.1
- SSR global change from baseline, LS mean difference [2, 7]: 0.3
- SSR compliance social rules change from baseline (LS mean) ([2]; Day 84, psilocybin 25 mg): 0.0
- SSR fullfilling expectations change from baseline (LS mean) ([2]; Day 84, psilocybin 25 mg): −0.0
- SSR global change from baseline (LS mean) ([2]; Day 84, psilocybin 25 mg): 0.1
- SSR compliance social rules change from baseline, LS mean difference [2, 8]: 0.1
- SSR fullfilling expectations change from baseline, LS mean difference [2, 8]: 0.2
- SSR global change from baseline, LS mean difference [2, 8]: 1.8
- SSR compliance social rules change from baseline, LS mean difference [2, 9]: 0.1
- SSR fullfilling expectations change from baseline, LS mean difference [2, 9]: 0.0
- SSR global change from baseline, LS mean difference [2, 9]: 2.2
- CANTAB global composite score, effect size of difference from placebo [3]: 0.53
- CANTAB global composite score, LS mean difference from placebo ([3]; p value ~0.04460): −0.1832
